≈ marks a conversion by molar mass, not a printed value.
Tests used:
[1] = test system: Vesicular stomatitis Indiana virus; assay: Antiviral activity against Vesicular stomatitis Indiana virus infected in golden hamster CER cells assessed as reduction in virus plaque formation after 36 to 48 hrs; assay type: functional
[2] = Cytotoxicity against golden hamster CER cells after 2 days by neutral red uptake assay; assay type: cell-based, Mesocricetus auratus; conditions: read-out: TC50
[3] = Cytotoxicity against human HeLa cells assessed as maximum non-toxic drug level after 2 days by neutral red uptake assay; assay type: cell-based; conditions: read-out: MNCC
[4] = test system: rhinovirus A1B; assay: Antiviral activity against HRV1B infected in human HeLa cells assessed as reduction in virus-induced cytopathic effect at 20 ug/ml; assay type: functional, Human rhinovirus 1B; design: scale not given: the % may be the effect or the level left
[5] = test system: rhinovirus A1B; assay: Antiviral activity against HRV1B infected in human HeLa cells assessed as reduction in virus-induced cytopathic effect at 30 ug/ml; assay type: functional, Human rhinovirus 1B; design: scale not given: the % may be the effect or the level left

C[C@H]1[C@H](C)CC[C@]2(C(=O)O)CC[C@]3(C(=O)O[C@@H]4O[C@H](CO)[C@@H](O)[C@H](O)[C@H]4O)C(=CC[C@@H]4[C@@]5(C)CC[C@H](O[C@@H]6O[C@H](CO)[C@@H](O)[C@H](O)[C@H]6O)C(C)(C)[C@@H]5CC[C@]43C)[C@H]12
MIC50 [1]: 87 µM (≈ 70.6 µg/mL)
CC50 at 48 h [2]: 150 µg/mL (≈ 185 µM)

C[C@H]1[C@H](C)CC[C@]2(C(=O)O)CC[C@]3(C(=O)O)C(=CC[C@@H]4[C@@]5(C)CC[C@H](O[C@@H]6O[C@H](C)[C@H](O)[C@H](O[C@@H]7O[C@H](CO)[C@@H](O)[C@H](O)[C@H]7O)[C@H]6O)C(C)(C)[C@@H]5CC[C@]43C)[C@H]12
MIC50 [1]: 25 µM (≈ 19.9 µg/mL)
CC50 at 48 h [2]: 100 µg/mL (≈ 126 µM)

C[C@H]1[C@H](C)CC[C@]2(C(=O)O[C@@H]3O[C@H](CO)[C@@H](O)[C@H](O)[C@H]3O)CC[C@]3(C(=O)O)C(=CC[C@@H]4[C@@]5(C)CC[C@H](O[C@@H]6O[C@H](C)[C@H](O)[C@H](O[C@@H]7O[C@H](CO)[C@@H](O)[C@H](O)[C@H]7O)[C@H]6O)C(C)(C)[C@@H]5CC[C@]43C)[C@H]12
MIC50 [1]: 42 µM (≈ 40.2 µg/mL)
CC50 at 48 h [2]: 80 µg/mL (≈ 83.6 µM)

C[C@H]1[C@H](C)CC[C@]2(C(=O)O[C@@H]3O[C@H](CO)[C@@H](O)[C@H](O)[C@H]3O)CC[C@]3(C(=O)O)C(=CC[C@@H]4[C@@]5(C)CC[C@H](O[C@@H]6O[C@H](C)[C@@H](O)[C@H](O)[C@H]6O)C(C)(C)[C@@H]5CC[C@]43C)[C@H]12
MIC50 [1]: 28 µM (≈ 22.3 µg/mL)
CC50 at 48 h [2]: 80 µg/mL (≈ 101 µM)

C[C@H]1[C@H](C)CC[C@]2(C(=O)O)CC[C@]3(C(=O)O[C@@H]4O[C@H](CO)[C@@H](O)[C@H](O)[C@H]4O)C(=CC[C@@H]4[C@@]5(C)CC[C@H](O[C@@H]6O[C@H](C)[C@H](O)[C@H](O[C@@H]7O[C@H](CO)[C@@H](O)[C@H](O)[C@H]7O)[C@H]6O)C(C)(C)[C@@H]5CC[C@]43C)[C@H]12
MIC50 [1]: 63 µM (≈ 60.3 µg/mL)
CC50 at 48 h [2]: 100 µg/mL (≈ 104 µM)

C[C@H]1[C@H](C)CC[C@]2(C(=O)O[C@@H]3O[C@H](CO)[C@@H](O)[C@H](O)[C@H]3O)CC[C@]3(C(=O)O)C(=CC[C@@H]4[C@@]5(C)CC[C@H](O[C@@H]6O[C@H](CO)[C@@H](O)[C@H](O)[C@H]6O)C(C)(C)[C@@H]5CC[C@]43C)[C@H]12
MIC50 [1]: 40 µM (≈ 32.4 µg/mL)
MNTC at 48 h [3]: 100 µg/mL
Activity [4]: 50%
Activity [5]: 50%
CC50 at 48 h [2]: 150 µg/mL (≈ 185 µM)

C[C@H]1[C@H](C)CC[C@]2(C(=O)O[C@@H]3O[C@H](CO)[C@@H](O)[C@H](O)[C@H]3O)CC[C@]3(C(=O)O)C(=CC[C@@H]4[C@@]5(C)CC[C@H](O[C@@H]6O[C@H](C)[C@H](O)[C@H](O)[C@H]6O)C(C)(C)[C@@H]5CC[C@]43C)[C@H]12
MIC50 [1]: 40 µM (≈ 31.8 µg/mL)
CC50 at 48 h [2]: 80 µg/mL (≈ 101 µM)

C[C@H]1[C@H](C)CC[C@]2(C(=O)O)CC[C@]3(C(=O)O)C(=CC[C@@H]4[C@@]5(C)CC[C@H](O[C@@H]6O[C@H](CO)[C@@H](O)[C@H](O)[C@H]6O)C(C)(C)[C@@H]5CC[C@]43C)[C@H]12
MIC50 [1]: 51 µM (≈ 33.1 µg/mL)
CC50 at 48 h [2]: 150 µg/mL (≈ 231 µM)
